Key:
[1] = tested on: seasonal allergic rhinitis patients; test: four double-blinded, randomized clinical trials in seasonal allergic rhinitis patients; assay type: in vivo, human
Excerpt: The clinical efficacy and safety of desloratadine has been documented in over 3,200 seasonal allergic rhinitis patients in four double-blinded, randomized clinical trials.
Efficacy endpoints in all the studies were Total Symptom Score, Total Nasal Symptom Score, Total Non-nasal Symptom Score, and Health Quality of Life (HQOL) analysis in efficacy trials. […] An important efficacy endpoint analyzed in the desloratadine studies is the AM NOW total symptom score. This parameter measures the total symptom relief by the patient after 24 hours before taking the next day dose.

patients with SAR = test: pooled randomized, parallel-group, double-blind, placebo-controlled studies of nasal congestion/stuffiness in patients with SAR; assay type: in vivo, human; details: for nasal congestion/stuffiness severity score (0-3), 14-day average change from baseline: baseline score 2.4
Procedure: The effects of desloratadine on nasal congestion/stuffiness are described by using data pooled from randomized, parallel-group, double-blind, placebo-controlled studies of desloratadine in patients with SAR. Patients (12-75 years; pooled n-659-662/group) with a ≧2-year history of seasonal allergic rhinitis and moderate-to-[…] severe symptoms present at the time of enrollment received desloratadine (5 mg or 7.5 mg) or placebo PO once a day for 14 days. The severity (0=none, 1=mild, 2=moderate, 3=severe) of congestion/stuffiness was assessed by patients for the study duration. The 14-day average change in symptom severity score from baseline was assessed. The mean symptom severity score for nasal congestion/stuffiness was 2.4 in each treatment group at baseline, indicating patients had moderate-to-severe nasal congestion before receiving treatment.

Clc1ccc2c(c1)CCc1cccnc1C2=C1CCNCC1 [Desloratadine, desloratadine]
total symptom scores (sum of individual scores for rhinorrhea, sneezing, congestion/stuffiness, nasal itching, itchy/burning eyes, tearing, ocular redness, itchy ears/palate) ([1]; 5 mg once daily, adult and adolescent SAR patients): significantly reduced
reducing nasal symptoms vs placebo ([1]; 5 mg, p<0.01 vs placebo): significantly (p<0.01) more effective than placebo
AM NOW total symptom score (symptom relief after 24 hours, before next day dose) ([1]; entire 5 mg to 20 mg dosage range, p<0.05): Statistically significant (p<0.05) reductions were maintained for the full 24 hour dosing interval
nasal congestion/stuffiness severity score (0-3), 14-day average change from baseline (patients with SAR; 5 mg PO once a day for 14 days, P=0.02 vs placebo): significantly decreased
total symptom severity (patients with SAR; 5 mg or 7.5 mg PO once a day for 14 days, vs placebo): significantly decreased
nasal congestion/stuffiness severity score (0-3), 14-day average change from baseline (patients with SAR; 7.5 mg PO once a day for 14 days, P=0.01 vs placebo): significantly decreased
